Columns and labels:
[1] = system: Venular Endothelial cells (HUVEC) (3C system); experiment: BioMAP 3C system, Example 825; type: cell-based, human
Procedure: The BioMAP platform (BioMAP® Diversity PLUS Panel from Eurofins) is an in vitro phenotypic profiling technology that screened the compounds of the present disclosure (hereafter indicated as test agents) in human primary cell-based systems modelling complex tissue and disease states. The BioMAP assays were performed using the Eurofin's BioMAP Technology Platform as (see references 1 to 13 in the example 824 section) to model different diseases on primary cell-based model systems. These systems consisted of either single primary cell types or co-culture cells. Adherent cell types were cultured or co-cultured in 96 or 384-well plates until confluence followed by the addition of compounds prepared in DMSO at a final concentration of ≤0.1%. […]
Following the general procedure as described in Example 824, Venular Endothelial cells (HUVEC) (3C system) were treated with IL-1β, TNFα, IFNγ for 24 h to model Th1 driven cardiovascular and chronic inflammation diseases in the presence or absence of the compounds. Biomarker read out were; Tissue Factor, ICAM-1, E-selectin, uPAR (CD87), IL-8, […], HLA-DR, proliferation and SRB (Sulfo-rhodamine i.e. staining for protein content).

[2] = system: Venular endothelial cells co-cultured with macrophages (Mphg system); experiment: BioMAP Mphg system, Example 836; type: cell-based, human
Procedure: (§1) The BioMAP platform (BioMAP® Diversity PLUS Panel from Eurofins) is an in vitro phenotypic profiling technology that screened the compounds of the present disclosure (hereafter indicated as test agents) in human primary cell-based systems modelling complex tissue and disease states. The BioMAP assays were performed using the Eurofin's BioMAP Technology Platform as (see references 1 to 13 in the example 824 section) to model different diseases on primary cell-based model systems. These systems consisted of either single primary cell types or co-culture cells. Adherent cell types were cultured or co-cultured in 96 or 384-well plates until confluence followed by the addition of compounds prepared in DMSO at a final concentration of ≤0.1%. In each cell-based system, primary cells from heathy donors (2-6 donors) were pooled and treated with compounds at 1 and 10 μM dose 1 h prior to stimulation and remain in culture as indicated in
(§2) Example 825, Example 826, Example 827, Example 828, Example 829, Example 830, Example 831, Example 832, Example 833, Example 834, Example 835, Example 836 and Example 837. For on the BioMAP® Diversity PLUS® Panel, please see the following references, which are incorporate herein.
Following the general procedure as described in Example 824, Venular endothelial cells co-cultured with macrophages (Mphg system) and treated with TLR2 ligand for 24 h in the presence or absence of the compounds to mimic cardiovascular inflammation, restenosis and chronic inflammation. Biomarkers read out were; MCP-1, MIP-1α, VCAM-1, CD40, E-selectin, CD69, IL-8, IL-1α, M-CSF, sIL-10 and SRB.

[3] = system: Bronchial epithelial cells co-cultured with dermal fibroblast (BF4T system); experiment: BioMAP BF4T system, Example 830; type: cell-based, human; settings: 10 uM
Procedure: as §1, §2
Following the general procedure as described in Example 824, Bronchial epithelial cells were co-cultured with dermal fibroblast (BF4T system) and were treated with TNFα and IL-4 for 24 h in the presence or absence of the compounds to model asthma, allergy, fibrosis, lung inflammation. Biomarkers read out were; MCP-1, Eotaxin-3, VCAM-1, ICAM-1, CD90, IL-8, IL-1α, keratin 8/18, MMP-1, MMP-3, MMP-9, PAI-1, SRB, tPA, uPA.

[4] = system: Coronary artery smooth muscle cells (CASM3C system); experiment: BioMAP CASM3C system, Example 832; type: cell-based, human
Procedure: as §1, §2
Following the general procedure as described in Example 824, Coronary artery smooth muscle cells (CASM3C system) were treated with IL-1β, TNFα and IFNγ for 24 h in the presence or absence of the compounds to model cardiovascular inflammation and restenosis. Biomarker reads out were; MCP-1, VCAM-1, Throbomodulin, Tissue factor, uPAR, IL-8, MIG, HLA-DR, IL-6, LDLR, M-CSF, PAI-1, Proliferation, SAA and SRB

[5] = system: Dermal fibroblasts (HDF3CGF system); experiment: BioMAP HDF3CGF system, Example 833; type: cell-based, human; settings: 1 uM
Procedure: as §1, §2
Following the general procedure as described in Example 824, Dermal fibroblasts (HDF3CGF system) were treated with IL-1β, TNFα and IFNγ, EGF, bFGF and PDGF-BB for 24 h in the presence or absence of the compounds to model fibrosis and chronic inflammation. Biomarkers read out were; MCP-1, VCAM-1, ICAM-1, Collagen-I, Collagen-III, IP-10, I-TAC, IL-8, MIG, EGFR, M-CSF, MMP-1, PAI-1, SRB, TIMP-1, TIMP-2 and proliferation was measured for 72 h.

[6] = system: Peripheral blood mononuclear cells co-cultured with B-cells (BT system); experiment: BioMAP BT system, Example 829; type: cell-based, human; settings: BT system; 10 uM
Procedure: as §1, §2
Following the general procedure as described in Example 824, Peripheral blood mononuclear cells were co-cultured with B-cells (BT system) were treated with either α-IgM and TCR ligands for 72 h in the presence or absence of the compounds to model asthma, allergy, oncology and autoimmunity. Biomarkers read out were; B-cell proliferation, PBMC cytotoxicity, secreted IgG, sIL-17A, sIL-17F, sIL-2, sIL-6 and s-TNFα.

[7] = system: Venular Endothelial cells (HUVEC) (4H system); experiment: BioMAP 4H system, Example 826; type: cell-based, human
Procedure: as §1, §2
Following the general procedure as described in Example 824, Venular Endothelial cells (HUVEC) (4H system) were treated with IL-4 and histamine for 24 h to model Th2 driven allergy and autoimmunity in the presence or absence of compounds. Biomarkers read out were; MCP-1, Eotaxin-3. VCAM-1, P-selectin, uPAR (CD87), SRB and VEGFRII.

[8] = system: Keratinocytes co-cultured with dermal fibroblast (KF3CT system); experiment: BioMAP KF3CT system, Example 834; type: cell-based, human
Procedure: as §1, §2
Following the general procedure as described in Example 824, Keratinocytes were co-cultured with dermal fibroblast (KF3CT system) and treated with […], TNFα, IFNγ and TGFβ for 24 h in the presence or absence of the compounds to model psoriasis, dermatitis and skin biology. Biomarkers read out were; MCP-1, ICAM-1, IP-10, IL-8, MIG, IL-1α, MMP-9, PAI-1, SRB, TIMP-2, uPA.

[9] = system: Peripheral blood mononuclear cells co-cultured with venular endothelial cells (HUVEC) (LPS system); experiment: BioMAP LPS system, Example 827; type: cell-based, human
Procedure: as §1, §2
Following the general procedure as described in Example 824, Peripheral blood mononuclear cells co-cultured with venular endothelial cells (HUVEC) (LPS system) were stimulated with LPS for 24 h in the presence or absence of compounds, to model cardiovascular disease and chronic inflammation. Biomarkers read out were; MCP-1, VCAM-1, Thrombomodulin, Tissue Factor, CD40, E-selectin, CD69, IL-8, IL-1α, M-CSF, sPGE2, SRB and TNFα.

[10] = system: Peripheral blood mononuclear cells co-cultured with venular endothelial cells (Sag system); experiment: BioMAP Sag system, Example 828; type: cell-based, human; settings: Sag system, 1 uM
Procedure: as §1, §2
Following the general procedure as described in Example 824, Peripheral blood mononuclear cells were co-cultured with venular endothelial cells and treated with soluble antigen (T-cell ligands) (Sag system) in the presence or absence of compounds to model autoimmune and chronic inflammation. Biomarkers read out were; MCP-1, CD38, CD40, E-selectin, CD69, IL-8, MIG, PBMC cytotoxicity, Proliferation and SRB.

[11] = system: HepG2 cells; experiment: Glucose uptake Glo Assay, Example 821; type: cell-based; settings: for activation at 10 µM: Homo sapiens, 20 min, read-out: % increase in Glucose Uptake
Procedure: The effect of compounds from the present disclosure on glucose uptake was determined in HepG2 cells (ATCC, HB-8065) using the glucose uptake Glo Assay Kit (Promega, 11343 according to manufacturer instructions. HepG2 cells were cultured in complete DMEM-glucose media (Gibco) supplemented with 10% FBS (37° C. incubator with 5% CO2) and seeded in 96-well plates at 30,000 cells/well. After removing the complete media, 100 μL/well of serum-free, high-glucose DMEM media were added to the wells and incubated overnight (37° C. incubator with 5% CO2). Media was then replaced with 100 μl/well DPBS containing 0.6°/o BSA and starved for 1 hour. Next, DPBS was removed and 45 μl/well of insulin (100 nM) or compounds (10 μM-50 μM) were added to the wells and incubated for 10 minutes (37° C. incubator with 5% CO2). Insulin and compounds were prepared in DPBS with 0.6% BSA with a final DMSO concentration of 0.1%. Next, 5 μl of 2DG (10 mM) in DPBS were added per well and allowed to incubate for 20 minutes followed by addition of 25 μl stop buffer. 37.5 μl of the mixture were then transferred to a new plate and 12.5 μl of Neutralization buffer added to the wells. After, 50 μl of 2DG6P detection Reagent were added and incubated for 0.5-1 hour at room temperature. Luminescence was measured with 0.3-1 second integration on a luminometer.

COC(=O)CCC(=O)CC(=O)SCCNC(=O)CCNC(=O)[C@@H]1OP(=O)(O)OCC1(C)C [Compound 6]
% decrease in IL-8 ([1]; 3C system, 1 uM): ≥10% | % increase in Proliferation (HUVEC) ([1]; 3C system, 10 uM): ≥20% | % increase in Proliferation (HUVEC) ([1]; concentration tested 10 uM): ≥20% | % decrease in IL-8 ([1]; procedure of Example 825, concentration tested 1 uM): ≥10% | % decrease in α-SMA ([2]; procedure of Example 836, 1 uM): ≥10% | % increase in MMP-1 ([2]; procedure of Example 836, 10 uM): ≥10% | % increase in VCAM-1 [3]: ≥10% | % decrease in HLA-DR ([4]; 1 uM): ≥10% | % decrease in M-CSF ([4]; 1 uM): ≥10% | % decrease in VCAM-1 ([4]; 1 uM): ≥10% | % decrease in Thrombomodulin ([4]; 10 uM): ≥20% | % decrease in TIMP-1 [5]: ≥10% | % increase in 72 Hour Proliferation [5]: ≥10% | % decrease in sTNFα [6]: ≥10% | % decrease in MCP-1 ([7]; 4H system, 1 uM): ≥10% | % decrease in VEGFRII ([7]; 4H system, 1 uM): ≥10% | % decrease in MCP-1 ([7]; concentration tested 1 uM): ≥10% | % decrease in VEGFRII ([7]; concentration tested 1 uM): ≥10% | % decrease in MCP-1 ([8]; 10 uM (Example 927)): ≥10% | % decrease in MCP-1 ([8]; 10 uM (Example 928)): ≥10% | % decrease in M-CSF ([9]; Example 988, concentration tested 1 uM): ≥10% | % decrease in IL-8 ([9]; LPS system, 1 uM): ≥10% | % decrease in M-CSF ([9]; LPS system, 1 uM): ≥10% | % decrease in Tissue Factor ([9]; LPS system, 1 uM): ≥10% | % decrease in sTNFα ([9]; LPS system, 1 uM): ≥20% | % decrease in Tissue Factor ([9]; concentration tested 1 uM): ≥10% | % decrease in sTNFα ([9]; concentration tested 1 uM): ≥20% | % decrease in IL-8 ([9]; procedure of Example 827, concentration tested 1 uM): ≥10% | % increase in MCP-1 [10]: ≥10%

CCOC(=O)CCC(=O)SCCNC(=O)CCNC(=O)[C@@H]1OP(=O)(N[C@@H](C)C(=O)OCC)OCC1(C)C (some centres unmarked) [Compound 206]
% increase in sIL-6 [6]: ≥20%

C/C=C/C(=O)CC(=O)SCCNC(=O)CCNC(=O)[C@@H]1OP(=O)(OCc2ccccc2)OCC1(C)C (some centres unmarked) [Compound 867]
activation at 10 µM [11]: ≥ 20% | % increase in Glucose Uptake ([11]; concentration tested 10 uM): ≥20%

CC1(C)OCC(C)(C)[C@H](C(=O)NCCC(=O)NCCSC(=O)C(=O)O)O1 [Compound 868]
% increase in Glucose Uptake ([11]; 10 uM (Example 973)): ≥30% | activation at 10 µM [11]: ≥ 30%

CC1(C)COP(=O)(O)O[C@H]1C(=O)NCCC(=O)NCCS [Compound 869]
activation at 10 µM [11]: ≥ 10% | % increase in Glucose Uptake ([11]; concentration tested 10 uM): ≥10%

CC1(C)OCC(C)(C)[C@H](C(=O)NCCC(=O)NCCSSCCNC(=O)CCNC(=O)[C@@H]2OC(C)(C)OCC2(C)C)O1 [Compound 870]
activation at 10 µM [11]: ≥ 30% | % increase in Glucose Uptake ([11]; concentration tested 10 uM): ≥30%

From patent US12037354B2, “Cyclic pantetheine derivatives and uses thereof” (VectivBio Comet AG, priority 2018, dated 2024)
